Reference: ChEMBL document CHEMBL1201862, “PubChem BioAssay data set” (2004)
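In this assay, cells in 96-well plates receive the compound at five concentrations for 48 hours. Endpoints are linearly interpolated between the surrounding concentrations. GI50 is the concentration that inhibits growth by half.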 Calls of active or inactive are those of the source. Rule as the data show it: active = GI50 up to about 1.1 µM and inactive = higher.

Key:
Assay in all cases: growth of human tumour cells (NCI), 48 h
MDA-N = test system: MDA-N
EKVX = test system: EKVX
HL-60 = test system: HL-60
UO-31 = test system: UO-31
RPMI-8226 = test system: RPMI-8226
T47D = test system: T47D
HT-29 = test system: HT-29
BT-549 = test system: BT-549
OVCAR-3 = test system: OVCAR-3
SF-268 = test system: SF-268
NCI-H522 = test system: NCI-H522
OVCAR-5 = test system: OVCAR-5
SW-620 = test system: SW-620
OVCAR-8 = test system: OVCAR-8
786-0 = test system: 786-0
MDA-MB-435 = test system: MDA-MB-435
SN12C = test system: SN12C
ACHN = test system: ACHN
MDA-MB-231 = test system: MDA-MB-231
NCI-H460 = test system: NCI-H460
NCI/ADR-RES = test system: NCI/ADR-RES
CAKI-1 = test system: CAKI-1
SR = test system: SR
OVCAR-4 = test system: OVCAR-4
NCI-H226 = test system: NCI-H226
HCT-116 = test system: HCT-116
A498 = test system: A498
SNB-75 = test system: SNB-75
SK-MEL-28 = test system: SK-MEL-28
SK-OV-3 = test system: SK-OV-3
TK-10 = test system: TK-10
LOX IMVI = test system: LOX IMVI
MOLT-4 = test system: MOLT-4
IGROV-1 = test system: IGROV-1
SNB-19 = test system: SNB-19
M14 = test system: M14
SK-MEL-2 = test system: SK-MEL-2
K562 = test system: K562
SK-MEL-5 = test system: SK-MEL-5
DU-145 = test system: DU-145
HOP-92 = test system: HOP-92
KM12 = test system: KM12
HCT-15 = test system: HCT-15
A549 = test system: A549
CCRF-CEM = test system: CCRF-CEM
COLO 205 = test system: COLO 205
Hs-578T = test system: Hs-578T
RXF 393 = test system: RXF 393
HOP-62 = test system: HOP-62
U-251 = test system: U-251
Malme-3M = test system: Malme-3M
SF-295 = test system: SF-295
PC-3 = test system: PC-3
UACC-257 = test system: UACC-257
NCI-H23 = test system: NCI-H23
UACC-62 = test system: UACC-62
HCC 2998 = test system: HCC 2998
MCF7 = test system: MCF7
SF-539 = test system: SF-539

`CCc1nnc2sc(-c3ccc(-c4ccc(Cl)cc4Cl)o3)nn12` was tested, and the GI50 (MDA-N) was 66.5 µM (inactive), the GI50 (EKVX) was 54.8 µM (inactive) and the GI50 (HL-60) was 27 µM (inactive). The GI50 (UO-31) was 67.8 µM (inactive), the GI50 (RPMI-8226) was 29.2 µM (inactive) and the GI50 (T47D) was 18 µM (inactive). For the same compound, the GI50 (HT-29) was 96.2 µM (inactive), the GI50 (BT-549) was 50 µM (inactive) and the GI50 (OVCAR-3) was 40.6 µM (inactive). The GI50 (SF-268) was 61.2 µM (inactive), the GI50 (NCI-H522) was 52.4 µM (inactive) and the GI50 (OVCAR-5) was > 100 µM (inactive). For the same compound, the GI50 (SW-620) was > 100 µM (inactive), the GI50 (OVCAR-8) was 71 µM (inactive) and the GI50 (786-0) was 32.9 µM (inactive). The GI50 (MDA-MB-435) was > 100 µM (inactive), the GI50 (SN12C) was 60.7 µM (inactive) and the GI50 (ACHN) was 82 µM (inactive). The GI50 (MDA-MB-231) was 35 µM (inactive), the GI50 (NCI-H460) was 67 µM (inactive) and the GI50 (NCI/ADR-RES) was 50.2 µM (inactive). For the same compound, the GI50 (CAKI-1) was 96.6 µM (inactive), the GI50 (SR) was 40.3 µM (inactive) and the GI50 (OVCAR-4) was 84.7 µM (inactive). The GI50 (NCI-H226) was 50.6 µM (inactive), the GI50 (HCT-116) was 62.5 µM (inactive) and the GI50 (A498) was 30.3 µM (inactive). The GI50 (SNB-75) was 21.3 µM (inactive), the GI50 (SK-MEL-28) was > 100 µM (inactive) and the GI50 (SK-OV-3) was 43.1 µM (inactive). The GI50 (TK-10) was 43.7 µM (inactive), the GI50 (LOX IMVI) was 74.1 µM (inactive) and the GI50 (MOLT-4) was 44.1 µM (inactive). For the same compound, the GI50 (IGROV-1) was > 100 µM (inactive), the GI50 (SNB-19) was > 100 µM (inactive) and the GI50 (M14) was > 100 µM (inactive). The GI50 (SK-MEL-2) was 58.7 µM (inactive), the GI50 (K562) was 47.2 µM (inactive) and the GI50 (SK-MEL-5) was 34.2 µM (inactive). For the same compound, the GI50 (DU-145) was 72.3 µM (inactive), the GI50 (HOP-92) was 21.4 µM (inactive) and the GI50 (KM12) was > 100 µM (inactive). The GI50 (HCT-15) was 61.7 µM, the GI50 (A549) was 73.5 µM (inactive) and the GI50 (CCRF-CEM) was 37.3 µM (inactive). The GI50 (COLO 205) was 23.1 µM (inactive), the GI50 (Hs-578T) was 74.8 µM (inactive) and the GI50 (RXF 393) was 3.79 µM (inactive). For the same compound, the GI50 (HOP-62) was 61.9 µM (inactive), the GI50 (U-251) was 37.3 µM (inactive) and the GI50 (Malme-3M) was > 100 µM (inactive). The GI50 (SF-295) was 43.1 µM (inactive), the GI50 (PC-3) was 30.1 µM (inactive) and the GI50 (UACC-257) was 43.9 µM (inactive). The GI50 (NCI-H23) was 76.4 µM (inactive).

For `N/C1=C/C(=O)NC(=O)c2c(c3ccccc3oc2=O)C1`, the GI50 (MDA-N) was > 100 µM (inactive), the GI50 (EKVX) was 46.7 µM (inactive) and the GI50 (HL-60) was > 100 µM (inactive). For the same compound, the GI50 (UO-31) was > 100 µM (inactive), the GI50 (RPMI-8226) was 62.8 µM (inactive) and the GI50 (T47D) was > 100 µM (inactive). For the same compound, the GI50 (HT-29) was > 100 µM (inactive), the GI50 (BT-549) was > 100 µM (inactive) and the GI50 (OVCAR-3) was > 100 µM (inactive). The GI50 (SF-268) was > 100 µM (inactive), the GI50 (UACC-62) was > 100 µM (inactive) and the GI50 (NCI-H522) was > 100 µM (inactive). For the same compound, the GI50 (OVCAR-5) was > 100 µM (inactive), the GI50 (SW-620) was > 100 µM (inactive) and the GI50 (OVCAR-8) was > 100 µM (inactive). The GI50 (786-0) was > 100 µM (inactive), the GI50 (MDA-MB-435) was > 100 µM (inactive) and the GI50 (SN12C) was > 100 µM (inactive). For the same compound, the GI50 (ACHN) was > 100 µM (inactive), the GI50 (MDA-MB-231) was > 100 µM (inactive) and the GI50 (NCI-H460) was > 100 µM (inactive). The GI50 (NCI/ADR-RES) was > 100 µM (inactive), the GI50 (CAKI-1) was > 100 µM (inactive) and the GI50 (SR) was > 100 µM (inactive). For the same compound, the GI50 (OVCAR-4) was > 100 µM (inactive), the GI50 (NCI-H226) was > 100 µM (inactive) and the GI50 (HCT-116) was > 100 µM (inactive). For the same compound, the GI50 (A498) was > 100 µM (inactive), the GI50 (SNB-75) was > 100 µM (inactive) and the GI50 (SK-MEL-28) was > 100 µM (inactive). For the same compound, the GI50 (TK-10) was > 100 µM (inactive), the GI50 (LOX IMVI) was > 100 µM (inactive) and the GI50 (MOLT-4) was > 100 µM (inactive). For the same compound, the GI50 (IGROV-1) was > 100 µM (inactive), the GI50 (SNB-19) was > 100 µM (inactive) and the GI50 (M14) was > 100 µM (inactive). The GI50 (SK-MEL-2) was > 100 µM (inactive), the GI50 (K562) was > 100 µM (inactive) and the GI50 (DU-145) was > 100 µM (inactive). For the same compound, the GI50 (HOP-92) was > 100 µM (inactive), the GI50 (KM12) was > 100 µM (inactive) and the GI50 (HCT-15) was over 100 µM. The GI50 (A549) was > 100 µM (inactive), the GI50 (CCRF-CEM) was > 100 µM (inactive) and the GI50 (COLO 205) was > 100 µM (inactive). For the same compound, the GI50 (Hs-578T) was > 100 µM (inactive), the GI50 (RXF 393) was > 100 µM (inactive) and the GI50 (HOP-62) was > 100 µM (inactive). The GI50 (U-251) was > 100 µM (inactive), the GI50 (Malme-3M) was > 100 µM (inactive) and the GI50 (PC-3) was > 100 µM (inactive). The GI50 (UACC-257) was > 100 µM (inactive), the GI50 (NCI-H23) was > 100 µM (inactive) and the GI50 (HCC 2998) was > 100 µM (inactive).

With `C=C1C(=O)O[C@@H]2O[C@@]3(C)CC[C@H]4[C@H](C)CC[C@@H]1[C@@]24O3` [DEOXYARTEMISITENE] the GI50 (MDA-N) was 13.7 µM (inactive), the GI50 (EKVX) was 13.3 µM (inactive) and the GI50 (HL-60) was 2.63 µM (inactive). For the same compound, the GI50 (UO-31) was 19.3 µM (inactive), the GI50 (RPMI-8226) was 6.37 µM (inactive) and the GI50 (T47D) was 13.6 µM (inactive). The GI50 (HT-29) was 17.8 µM (inactive), the GI50 (BT-549) was 7.46 µM (inactive) and the GI50 (OVCAR-3) was 22.2 µM (inactive). For the same compound, the GI50 (SF-268) was 28.1 µM (inactive), the GI50 (UACC-62) was 13 µM (inactive) and the GI50 (NCI-H522) was 6.58 µM (inactive). For the same compound, the GI50 (OVCAR-5) was 38.5 µM (inactive), the GI50 (SW-620) was 15.5 µM (inactive) and the GI50 (786-0) was 13.6 µM (inactive). The GI50 (MDA-MB-435) was 29.2 µM (inactive), the GI50 (SN12C) was 19 µM (inactive) and the GI50 (ACHN) was 11.3 µM (inactive). The GI50 (MDA-MB-231) was 25.9 µM (inactive), the GI50 (NCI-H460) was 22.3 µM (inactive) and the GI50 (CAKI-1) was 15.7 µM (inactive). For the same compound, the GI50 (SR) was 7.18 µM (inactive), the GI50 (OVCAR-4) was 15.8 µM (inactive) and the GI50 (NCI-H226) was 40 µM (inactive). For the same compound, the GI50 (HCT-116) was 10.8 µM (inactive), the GI50 (A498) was 34.6 µM (inactive) and the GI50 (MCF7) was 5.52 µM (inactive). The GI50 (SK-MEL-28) was 40.6 µM (inactive), the GI50 (SK-OV-3) was 36.1 µM (inactive) and the GI50 (TK-10) was 15.9 µM (inactive). The GI50 (LOX IMVI) was 16.1 µM (inactive), the GI50 (MOLT-4) was 9.08 µM (inactive) and the GI50 (IGROV-1) was 3.38 µM (inactive). The GI50 (SNB-19) was 47.2 µM (inactive), the GI50 (M14) was 24.9 µM (inactive) and the GI50 (SK-MEL-2) was 18.2 µM (inactive). The GI50 (K562) was 3.56 µM (inactive), the GI50 (SK-MEL-5) was 19.1 µM (inactive) and the GI50 (DU-145) was 12.9 µM (inactive). For the same compound, the GI50 (HOP-92) was 3.49 µM (inactive), the GI50 (KM12) was 4.19 µM (inactive) and the GI50 (HCT-15) was 10.9 µM. For the same compound, the GI50 (A549) was 34.8 µM (inactive), the GI50 (CCRF-CEM) was 3.47 µM (inactive) and the GI50 (SF-539) was 11 µM (inactive). For the same compound, the GI50 (COLO 205) was 11.9 µM (inactive), the GI50 (Hs-578T) was 39 µM (inactive) and the GI50 (RXF 393) was 14.4 µM (inactive). The GI50 (HOP-62) was 49.5 µM (inactive), the GI50 (U-251) was 43.4 µM (inactive) and the GI50 (Malme-3M) was 14.2 µM (inactive). For the same compound, the GI50 (SF-295) was 27.1 µM (inactive), the GI50 (PC-3) was 19.5 µM (inactive) and the GI50 (UACC-257) was 18.9 µM (inactive). For the same compound, the GI50 (NCI-H23) was 15.2 µM (inactive) and the GI50 (HCC 2998) was 21.9 µM (inactive).
